Measured values published in ChEMBL document CHEMBL4138123, “Design, synthesis and biological evaluation of novel pyrazolochalcones as potential modulators of PI3K/Akt/mTOR pathway and inducers of apoptosis in breast cancer cells” (Eur J Med Chem, 2017).

Key:
Assay type in all cases: functional
K562 = assay: Cytotoxicity against human K562 cells assessed as cell growth at 0.1 uM after 48 hrs by sulforhodamine B assay relative to control; conditions: K562, 48 h, read-out: Activity
MDA-MB-468 = assay: Cytotoxicity against human MDA-MB-468 cells assessed as cell growth at 10 uM after 48 hrs by sulforhodamine B assay relative to control; conditions: MDA-MB-468, 48 h, read-out: Activity
M14 = assay: Cytotoxicity against human M14 cells assessed as cell growth at 0.01 uM after 48 hrs by sulforhodamine B assay relative to control; conditions: M14, 48 h, read-out: Activity
ACHN [1] = assay: Cytotoxicity against human ACHN cells assessed as cell growth at 10 uM after 48 hrs by sulforhodamine B assay relative to control; conditions: read-out: Activity
ACHN [2] = assay: Cytotoxicity against human ACHN cells assessed as cell growth at 1 uM after 48 hrs by sulforhodamine B assay relative to control; conditions: read-out: Activity
NCI-H522 [3] = assay: Cytotoxicity against human NCI-H522 cells assessed as cell growth at 0.01 uM after 48 hrs by sulforhodamine B assay relative to control; conditions: NCI-H522, 48 h, read-out: Activity
SW-620 [4] = assay: Cytotoxicity against human SW620 cells assessed as cell growth at 10 uM after 48 hrs by sulforhodamine B assay relative to control; conditions: SW-620, 48 h, read-out: Activity
CCRF-CEM = assay: Cytotoxicity against human CCRF-CEM cells assessed as cell growth at 10 uM after 48 hrs by sulforhodamine B assay relative to control; conditions: read-out: Activity
SF-268 = assay: Cytotoxicity against human SF268 cells assessed as cell growth at 1 uM after 48 hrs by sulforhodamine B assay relative to control; conditions: SF-268, 48 h, read-out: Activity
NCI-H23 [5] = assay: Cytotoxicity against human NCI-H23 cells assessed as cell growth at 0.1 uM after 48 hrs by sulforhodamine B assay relative to control; conditions: NCI-H23, 48 h, read-out: Activity
UACC-62 = assay: Cytotoxicity against human UACC62 cells assessed as cell growth at 10 uM after 48 hrs by sulforhodamine B assay relative to control; conditions: UACC-62, 48 h, read-out: Activity
HCT-116 = assay: Cytotoxicity against human HCT116 cells assessed as cell growth at 10 uM after 48 hrs by sulforhodamine B assay relative to control; conditions: HCT-116, 48 h, read-out: Activity
SK-MEL-5 [6] = assay: Cytotoxicity against human SK-MEL-5 cells assessed as cell growth at 1 uM after 48 hrs by sulforhodamine B assay relative to control; conditions: SK-MEL-5, 48 h, read-out: Activity
NCI-H522 [7] = assay: Cytotoxicity against human NCI-H522 cells assessed as cell growth at 1 uM after 48 hrs by sulforhodamine B assay relative to control; conditions: NCI-H522, 48 h, read-out: Activity
SNB-19 = assay: Cytotoxicity against human SNB19 cells assessed as growth inhibition after 48 hrs by sulforhodamine B assay; conditions: SNB-19, 48 h
RPMI-8226 = assay: Cytotoxicity against human RPMI8226 cells assessed as growth inhibition after 48 hrs by sulforhodamine B assay; conditions: RPMI-8226, 48 h
A549 [8] = assay: Cytotoxicity against human A549/ATCC cells assessed as cell growth at 100 uM after 48 hrs by sulforhodamine B assay relative to control; conditions: A549, 48 h, read-out: Activity
SK-MEL-5 [9] = assay: Cytotoxicity against human SK-MEL-5 cells assessed as cell growth at 0.1 uM after 48 hrs by sulforhodamine B assay relative to control; conditions: SK-MEL-5, 48 h, read-out: Activity
DU-145 = assay: Cytotoxicity against human DU145 cells assessed as cell growth at 0.01 uM after 48 hrs by sulforhodamine B assay relative to control; conditions: DU-145, 48 h, read-out: Activity
NCI-H460 = assay: Cytotoxicity against human NCI-H460 cells assessed as cell growth at 100 uM after 48 hrs by sulforhodamine B assay relative to control; conditions: NCI-H460, 48 h, read-out: Activity
SK-MEL-5 [10] = assay: Cytotoxicity against human SK-MEL-5 cells assessed as growth inhibition after 48 hrs by sulforhodamine B assay; conditions: SK-MEL-5, 48 h
NCI-H23 [11] = assay: Cytotoxicity against human NCI-H23 cells assessed as cell growth at 100 uM after 48 hrs by sulforhodamine B assay relative to control; conditions: NCI-H23, 48 h, read-out: Activity
SN12C = assay: Cytotoxicity against human SN12C cells assessed as cell growth at 100 uM after 48 hrs by sulforhodamine B assay relative to control; conditions: read-out: Activity
NCI-H23 [12] = assay: Cytotoxicity against human NCI-H23 cells assessed as cell growth at 10 uM after 48 hrs by sulforhodamine B assay relative to control; conditions: NCI-H23, 48 h, read-out: Activity
OVCAR-4 = assay: Cytotoxicity against human OVCAR4 cells assessed as cell growth at 1 uM after 48 hrs by sulforhodamine B assay relative to control; conditions: OVCAR-4, 48 h, read-out: Activity
SW-620 [13] = assay: Cytotoxicity against human SW620 cells assessed as cell growth at 0.1 uM after 48 hrs by sulforhodamine B assay relative to control; conditions: SW-620, 48 h, read-out: Activity
COLO 205 [14] = assay: Cytotoxicity against human COLO205 cells assessed as cell growth at 10 uM after 48 hrs by sulforhodamine B assay relative to control; conditions: COLO 205, 48 h, read-out: Activity
PC-3 = assay: Cytotoxicity against human PC3 cells assessed as cell growth at 0.1 uM after 48 hrs by sulforhodamine B assay relative to control; conditions: PC-3, 48 h, read-out: Activity
BT-549 = assay: Cytotoxicity against human BT549 cells assessed as cell growth at 0.1 uM after 48 hrs by sulforhodamine B assay relative to control; conditions: BT-549, 48 h, read-out: Activity
NCI-H322M = assay: Cytotoxicity against human NCI-H322M cells assessed as cell growth at 0.01 uM after 48 hrs by sulforhodamine B assay relative to control; conditions: read-out: Activity
COLO 205 [15] = assay: Cytotoxicity against human COLO205 cells assessed as cell growth at 0.1 uM after 48 hrs by sulforhodamine B assay relative to control; conditions: COLO 205, 48 h, read-out: Activity
MDA-MB-231 = assay: Cytotoxicity against human MDA-MB-231 cells assessed as cell growth at 10 uM after 48 hrs by sulforhodamine B assay relative to control; conditions: MDA-MB-231, 48 h, read-out: Activity
HCT-15 = assay: Cytotoxicity against human HCT15 cells assessed as cell growth at 10 uM after 48 hrs by sulforhodamine B assay relative to control; conditions: HCT-15, 48 h, read-out: Activity
HL-60(TB) = assay: Cytotoxicity against human HL-60(TB) cells assessed as cell growth at 100 uM after 48 hrs by sulforhodamine B assay relative to control; conditions: HL-60, 48 h, read-out: Activity
A549 [16] = assay: Cytotoxicity against human A549/ATCC cells assessed as cell growth at 10 uM after 48 hrs by sulforhodamine B assay relative to control; conditions: A549, 48 h, read-out: Activity
KM12 = assay: Cytotoxicity against human KM12 cells assessed as cell growth at 0.01 uM after 48 hrs by sulforhodamine B assay relative to control; conditions: KM12, 48 h, read-out: Activity

SMILES: COc1ccc(-c2cc(/C=C/C(=O)c3cc(OC)c(OC)c(OC)c3)[nH]n2)cc1OC
- growth at 0.1 µM (K562): 94%
- growth at 10 µM (MDA-MB-468): -62%
- growth at 0.01 µM (M14): 96%
- growth at 10 µM (ACHN [1]): -95%
- growth at 1 µM (ACHN [2]): 78%
- growth at 0.01 µM (NCI-H522 [3]): 89%
- growth at 10 µM (SW-620 [4]): -43%
- growth at 10 µM (CCRF-CEM): -15%
- growth at 1 µM (SF-268): 81%
- growth at 0.1 µM (NCI-H23 [5]): 95%
- growth at 10 µM (UACC-62): -61%
- growth at 10 µM (HCT-116): -81%
- growth at 1 µM (SK-MEL-5 [6]): 87%
- growth at 1 µM (NCI-H522 [7]): 71%
- GI50 (SNB-19): 1.8 µM
- TGI (SNB-19): 5.32 µM
- CC50 (SNB-19; read-out: LC50 (the source's name)): 27.1 µM
- GI50 (RPMI-8226): 0.29 µM
- LC50 (RPMI-8226): > 100 µM
- TGI (RPMI-8226): 1.66 µM
- growth at 100 µM (A549 [8]): -62%
- growth at 0.1 µM (SK-MEL-5 [9]): 102%
- growth at 0.01 µM (DU-145): 108%
- growth at 100 µM (NCI-H460): -60%
- GI50 (SK-MEL-5 [10]): 1.58 µM
- LC50 (concentration killing 50% of cells) (SK-MEL-5 [10]): 5.44 µM
- TGI (SK-MEL-5 [10]): 2.93 µM
- growth at 100 µM (NCI-H23 [11]): -50%
- growth at 100 µM (SN12C): -67%
- growth at 10 µM (NCI-H23 [12]): -39%
- growth at 1 µM (OVCAR-4): 66%
- growth at 0.1 µM (SW-620 [13]): 96%
- growth at 10 µM (COLO 205 [14]): -72%
- growth at 0.1 µM (PC-3): 93%
- growth at 0.1 µM (BT-549): 82%
- growth at 0.01 µM (NCI-H322M): 93%
- growth at 0.1 µM (COLO 205 [15]): 89%
- growth at 10 µM (MDA-MB-231): 11%
- growth at 10 µM (HCT-15): -41%
- growth at 100 µM (HL-60(TB)): -8%
- growth at 10 µM (A549 [16]): -2%
- growth at 0.01 µM (KM12): 99%
